Assay [1] has as its system F. tularensis LVS. It counts as binding, Francisella tularensis.
The subject of assay [2] is F. tularensis LVS. The assay is classed as binding, Francisella tularensis. The source holds these as a separate data set.
Assay [3] deals with F. philomiragia. It counts as binding, Francisella philomiragia.
The test system of assay [4] is F. philomiragia. The assay is classed as binding, Francisella philomiragia. This is another data set of the same source.
The test system of assay [5] is F. novicida. It counts as binding, Francisella novicida.
For assay [6], the system named is F. novicida. The assay is classed as binding, Francisella novicida. The source holds these as a separate data set.
Assay [7] has as its system Staphylococcus aureus (ATCC 6538). It counts as binding.
For assay [8], the system named is Enterococcus hirae (ATCC 8043). It counts as binding.
The test system of the next assay is E. coli DH5α. The assay is classed as binding.

With TGRHTPWPHFMP [OV1, reference compound], the “effect of trypsin digestion of the bacterial surface on phage binding to F. tularensis LVS” value with F. tularensis LVS [1] is “increase in binding after trypsin treatment”. In the assay on F. tularensis LVS [2], the “phage binding to F. tularensis LVS in 0.1×PBS” value is recorded as “Neither phage expressing peptides having the sequence of SEQ ID NO: 2 (phage 4-4-2) or SEQ ID NO: 4 (OV1 negative control) bound” and the “ratio of phage binding to F. tularensis LVS compared to F. philomiragia” value is given as “approximately equal binding”. For the same sequence, the “effect of trypsin digestion of the bacterial surface on phage binding to F. philomiragia” value in the assay on F. philomiragia [3] is on record as “increase in binding after trypsin treatment”. In the assay with F. philomiragia [4], the “phage binding to F. philomiragia in 0.1×PBS” value is given as “Neither phage expressing peptides having the sequence of SEQ ID NO: 2 (phage 4-4-2) or SEQ ID NO: 4 (OV1 negative control) bound”, the “phage binding to F. philomiragia in 1×PBS buffer” value is given as “equal to the binding of phage 4-4-2” and the “phage binding to F. philomiragia in Tris-Mg buffer” value was “equal to or greater than the binding of phage 4-4-2”. In addition, in the assay on F. novicida [5], the “phage binding to F. novicida in 0.1×PBS” value is on record as “Neither phage expressing peptides having the sequence of SEQ ID NO: 2 (phage 4-4-2) or SEQ ID NO: 4 (OV1 negative control) bound”, the “phage binding to F. novicida in Tris-Mg buffer” value is “equal to or greater than the binding of phage 4-4-2” and the “ratio of phage binding to F. novicida compared to F. philomiragia” value is recorded as “approximately equal binding”.
Take LPISNPLPIKRS [SEQ ID NO: 3]: the “ratio of phage binding to F. tularensis LVS compared to F. philomiragia” value in the assay on F. tularensis LVS [2] is reported as “no specific binding”.
Consider “SLFWTIPIPSFR [p442S, reference compound]”, for which, in the assay on F. novicida [6], the “effect of added peptide on binding of phage 4-4-2 to F. novicida” value is on record as “did not inhibit the binding of phage 4-4-2”.
With TSITPWFFLSRP [phage 4-4-2], in the assay with F. tularensis LVS [1], the “effect of trypsin digestion of the bacterial surface on phage binding to F. tularensis LVS” value is given as “distinct trypsin sensitivity” and the “phage binding to F. tularensis LVS after trypsin digestion, relative to no trypsin” value is reported as 10-20%. Besides, in the assay on F. tularensis LVS [2], the “binding specificity of phage in Tris-Mg buffer” value is “showed specificity for the identification of F. tularensis LVS”, the “effect of growth on TSB (versus Chamberlain minimal medium) on phage binding to F. tularensis LVS” value was “stimulatory effect observed with F. tularensis LVS was not as great”, the “number of phage binding F. tularensis LVS in 1×PBS buffer (versus Tris-Mg)” value is listed as “not decreased significantly” and the “phage binding to F. tularensis LVS in 0.1×PBS” value is “Neither phage expressing peptides having the sequence of SEQ ID NO: 2 (phage 4-4-2) or SEQ ID NO: 4 (OV1 negative control) bound”. Further, the “ratio of phage binding to F. tularensis LVS compared to F. philomiragia” value with F. tularensis LVS [2] is > 100 fold. The “effect of trypsin digestion of the bacterial surface on phage binding to F. philomiragia” value in the assay on F. philomiragia [3] is “small but reproducible increase in binding”. Also, in assay [7], the “level of binding to S. aureus, fold lower than phage binding to F. novicida and F. tularensis LVS” value is listed as 20-100 fold. For the same sequence, the “level of binding to E. hirae, fold lower than phage binding to F. novicida and F. tularensis LVS” value in assay [8] was 20-100 fold. The “phage binding to F. philomiragia in 0.1×PBS” value in the assay on F. philomiragia [4] was “Neither phage expressing peptides having the sequence of SEQ ID NO: 2 (phage 4-4-2) or SEQ ID NO: 4 (OV1 negative control) bound”. Further, in the assay on F. novicida [5], the “amount of phage binding to F. novicida in 1×PBS buffer (versus Tris-Mg)” value is on record as “increased”, the “effect of growth on TSB (versus Chamberlain minimal medium) on phage binding to F. novicida” value is recorded as “stimulated binding”, the “phage binding to F. novicida in 0.1×PBS” value is on record as “Neither phage expressing peptides having the sequence of SEQ ID NO: 2 (phage 4-4-2) or SEQ ID NO: 4 (OV1 negative control) bound” and the “ratio of phage binding to F. novicida compared to F. philomiragia” value was > 100 fold. The “level of binding to E. coli, fold lower than phage binding to F. novicida and F. tularensis LVS” value in the assay on E. coli DH5α is listed as 20-100 fold.
As for TSITPWFFLSRP [p442], the “effect of added peptide on binding of phage 4-4-2 to F. novicida” value with F. novicida [6] is on record as “decreased binding of phage 4-4-2”.
